SMILES strings stand for the structures.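 The compound was tested at five concentrations on cells cultured in 96-well plates, with a 48-hour exposure period. GI50 is the concentration that inhibits growth by half.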 Active and inactive are the calls of the source. No stated cut-off is given here; in the data, active = GI50 up to about 1.1 µM and inactive = higher.

Holding throughout (assay): inhibition of tumour cell growth, NCI panel, 48 h
The subject of assay [1] is ACHN.
In assay [2] the test system is CCRF-CEM.
Assay [3] relates to HCT-116.
Assay [4] deals with HCT-15.
Assay [5] deals with IGROV-1.
Assay [6] has as its system K562.
In assay [7] the test system is M14.
The test system of assay [8] is NCI-H226.
Assay [9] relates to NCI-H522.
Assay [10] concerns OVCAR-4.
In assay [11] the test system is OVCAR-5.
Assay [12] deals with SF-268.
In assay [13] the test system is SF-295.
In assay [14] the test system is SK-MEL-5.
For assay [15], the system named is SNB-19.
For assay [16], the system named is UO-31.
The test system of assay [17] is MCF7.
Assay [18] concerns MDA-MB-435.
In assay [19] the test system is PC-3.
The test system of assay [20] is NCI/ADR-RES.

For `CC1(C)COC(c2cccnc2/C=N/O)=N1`, the GI50 in assay [1] was > 100 µM (inactive); in assay [2], > 100 µM (inactive); in assay [3], > 100 µM (inactive); in assay [4], above 100 µM; in [5], > 100 µM (inactive); in assay [6], > 100 µM (inactive). For the same molecule, the GI50 in [7], in [8], in assay [9], in assay [10], in [11] and in assay [12] was > 100 µM (inactive) in each case. In addition, the GI50 in assay [13], in assay [14], in assay [15] and in [16] was > 100 µM (inactive) each time.

Take `N#Cc1cc([N+](=O)[O-])ccc1NC(=O)C(=O)C(C(=O)/C=C/c1ccccc1)C1OC(=O)c2ccccc21` (configuration not stated): the GI50 in assay [1] is > 100 µM (inactive); in assay [2], 8.65 µM (inactive); in [3], > 100 µM (inactive); in [4], above 100 µM; in [5], > 100 µM (inactive); in assay [6] it was 13.9 µM (inactive). The GI50 in assay [7], in assay [8], in assay [9], in [10], in [11] and in assay [12] was > 100 µM (inactive) in each case. Besides, the GI50 in assay [13], in assay [14], in assay [15] and in assay [16] was > 100 µM (inactive) each time.

Regarding `C/C(=N/NC(=O)C[N+](C)(C)C)C(CN(C)C)C(=O)Nc1ccccc1` (configuration not stated), the GI50 was > 100 µM (inactive) in assay [1]; > 100 µM (inactive) in assay [2]; > 100 µM (inactive) in assay [3]; above 100 µM in assay [4]; > 100 µM (inactive) in assay [5]; > 100 µM (inactive) in [6]. The GI50 in assay [7], in assay [8], in assay [9], in [10], in assay [11] and in [12] was > 100 µM (inactive) in each case. Moreover, the GI50 in [13], in [14], in [15] and in [16] was > 100 µM (inactive) each time.

With `N#CC1CC(c2ccccc2)Nc2cc(Cl)ccc2N1` (configuration not stated), the GI50 in [1] is 61.5 µM (inactive); in assay [2] it was 3.18 µM (inactive); in [3], 19.3 µM (inactive); in assay [4], 13.8 µM; in assay [5], 69.7 µM (inactive); in assay [6], 9.14 µM (inactive). Besides, the GI50 in assay [7] is 24.3 µM (inactive); in assay [8], > 100 µM (inactive); in [9], 3.68 µM (inactive); in [10], 40.5 µM (inactive); in assay [11] it was > 100 µM (inactive); in assay [12], 45.2 µM (inactive). The GI50 in assay [13] is 40.9 µM (inactive); in assay [14], 41.2 µM (inactive); in assay [15], > 50.5 µM (inactive); in [16], > 100 µM (inactive).

As to `CCOC(=O)/C(C(=O)c1ccccc1)=C1\N[C@H](C(=O)OCC)CS1`, the GI50 in assay [1] is > 100 µM (inactive); in assay [2], > 100 µM (inactive); in assay [3], > 100 µM (inactive); in assay [4], above 100 µM; in assay [5] it was > 100 µM (inactive); in [6], > 100 µM (inactive). Further, the GI50 in assay [7], in assay [8], in assay [9], in [10], in assay [11] and in assay [12] was > 100 µM (inactive) throughout. Also, the GI50 was > 100 µM (inactive) in assay [13], 92.3 µM (inactive) in [14], > 100 µM (inactive) in assay [15] and > 100 µM (inactive) in [16].

Take `Cc1ccc(/N=N/C(=O)NNc2ccc(C)c([N+](=O)[O-])c2)cc1[N+](=O)[O-]`: the GI50 in assay [1] was 24.8 µM (inactive); in assay [2], 19.2 µM (inactive); in assay [3] it was 23.7 µM (inactive); in assay [4], 30.1 µM; in [5], 17.7 µM (inactive); in assay [6] it was 11.9 µM (inactive). The GI50 in assay [7] is 40 µM (inactive); in [17], 23.2 µM (inactive); in [18], 36.5 µM (inactive); in assay [8], 51.9 µM (inactive); in assay [9] it was 20.6 µM (inactive); in assay [10], 19.4 µM (inactive). The GI50 in assay [11] was 30.1 µM (inactive); in assay [19], 18.7 µM (inactive); in [12], 28.6 µM (inactive); in assay [14], 22.9 µM (inactive); in [15], 36.3 µM (inactive); in assay [16] it was 15.2 µM (inactive).

Consider `NN1C(=O)C(CCO)S/C1=N/N=C1/SC(CCO)C(=O)N1N` (configuration not stated), for which the GI50 in [1] was > 100 µM (inactive); in [2], > 100 µM (inactive); in assay [3], > 100 µM (inactive); in [4], above 100 µM; in assay [5], > 100 µM (inactive); in [6], > 100 µM (inactive). Further, the GI50 in [7], in assay [8], in [9], in assay [10], in assay [11] and in assay [12] was > 100 µM (inactive) in each case. Moreover, the GI50 in assay [13], in assay [14], in [15] and in assay [16] was > 100 µM (inactive) each time.

Consider `O=C(O)[C@@H]1OCCOCCO[C@@H](C(=O)O)[C@H](C(=O)O)OCCOCCO[C@H]1C(=O)O`, for which the GI50 in assay [1] was > 61.8 µM (inactive); in [2] it was > 51.2 µM (inactive); in assay [3] it was > 67.8 µM (inactive); in [4], above 55.8 µM; in [5] it was > 100 µM (inactive); in assay [6], > 72.3 µM (inactive). Further, the GI50 in [7], in assay [8], in assay [9], in assay [10], in [11] and in assay [12] was > 100 µM (inactive) in each case. The GI50 in assay [13], in assay [14], in assay [15] and in assay [16] was > 100 µM (inactive) each time.

As to `O=C(/C=C/c1ccccc1)CC1OC(=O)c2ccccc21` (configuration not stated), the GI50 in assay [1] was > 100 µM (inactive); in [2], 32.8 µM (inactive); in [3], 31.2 µM (inactive); in [4], above 100 µM; in [5], 80.7 µM (inactive); in assay [6] it was 75.5 µM (inactive). Besides, the GI50 in [7] is > 100 µM (inactive); in assay [8], 22.5 µM (inactive); in assay [9], 31.3 µM (inactive); in assay [10], > 100 µM (inactive); in assay [11] it was > 100 µM (inactive); in assay [12] it was > 100 µM (inactive). For the same molecule, the GI50 in assay [13] is 85.5 µM (inactive); in [14] it was > 100 µM (inactive); in assay [15], 42.1 µM (inactive); in assay [16], > 100 µM (inactive).

Consider `CC1=CC2(O)OC3(CC2=C(C)C)C(C)CCC13` (configuration not stated), for which the GI50 was > 100 µM (inactive) in assay [1]; > 100 µM (inactive) in assay [2]; > 100 µM (inactive) in assay [3]; above 100 µM in [4]; > 100 µM (inactive) in assay [5]; > 100 µM (inactive) in [6]. Moreover, the GI50 in assay [7], in assay [17], in assay [18], in [8], in assay [9] and in assay [20] was > 100 µM (inactive) in each case. Also, the GI50 in [10], in [11], in assay [12], in assay [13], in assay [14] and in assay [15] was > 100 µM (inactive) in each case. Also, in assay [16], the GI50 is 44.4 µM (inactive).

For the molecule `COc1ccc2[nH]c(CCNC(=O)c3cc([N+](=O)[O-])cc([N+](=O)[O-])c3)cc2c1`, the GI50 in assay [2] was > 100 µM (inactive); in assay [3], > 100 µM (inactive); in assay [4] it was above 100 µM; in assay [5], 26.5 µM (inactive); in assay [6], > 100 µM (inactive); in assay [7], > 100 µM (inactive). For the same molecule, the GI50 in assay [17] was 69.3 µM (inactive); in assay [18], > 100 µM (inactive); in assay [8], 71.1 µM (inactive); in assay [20] it was > 100 µM (inactive); in assay [10] it was > 100 µM (inactive); in assay [19], > 100 µM (inactive). The GI50 in assay [12] is 25 µM (inactive); in assay [14] it was > 100 µM (inactive); in assay [15] it was 35.6 µM (inactive); in assay [16], > 100 µM (inactive).

`COc1ccc(/N=N/c2c(O)ccc3ccccc23)cc1`: the GI50 is 20.4 µM (inactive) in [1]; > 100 µM (inactive) in assay [2]; > 100 µM (inactive) in assay [3]; 57.8 µM in assay [4]; 5.47 µM (inactive) in assay [5]; 26.1 µM (inactive) in assay [7]. Further, the GI50 in assay [18] is > 100 µM (inactive); in assay [8], 17.7 µM (inactive); in assay [9] it was 23 µM (inactive); in assay [20], 22.4 µM (inactive); in assay [10] it was 15.4 µM (inactive); in assay [11] it was 17.5 µM (inactive). Moreover, the GI50 is 28.2 µM (inactive) in assay [19], 16.1 µM (inactive) in [12], 12.9 µM (inactive) in assay [13] and 31.3 µM (inactive) in [16].

Source of the values: ChEMBL document CHEMBL1201862, “PubChem BioAssay data set” (2004).
